Experiments:
JAK1 = JAK1 (Homo sapiens (Human), UniProt P23458); assay: LanthaScreen JAK biochemical assay (JAK1)
JAK2 = JAK2 (Homo sapiens (Human), UniProt O60674); assay: LanthaScreen JAK biochemical assay (JAK2)
JAK3 = JAK3 (Homo sapiens (Human), UniProt P52333); assay: LanthaScreen JAK biochemical assay (JAK3)
[1] = test system: IL-4 induced STAT6 phosphorylation in THP-1 human monocytic cells; assay: Cellular JAK potency assay, THP-1
[2] = test system: IL-13 induced STAT6 phosphorylation in BEAS-2B human lung epithelial cells; assay: AlphaScreen cellular JAK potency assay, BEAS-2B; settings: BEAS-2B cells, IL-13 induced STAT6 phosphorylation
Tyk2 = Tyk2 (Homo sapiens (Human), UniProt P29597); assay: LanthaScreen JAK biochemical assay (Tyk2)
Chain of Tyk2 (P29597 whole entry): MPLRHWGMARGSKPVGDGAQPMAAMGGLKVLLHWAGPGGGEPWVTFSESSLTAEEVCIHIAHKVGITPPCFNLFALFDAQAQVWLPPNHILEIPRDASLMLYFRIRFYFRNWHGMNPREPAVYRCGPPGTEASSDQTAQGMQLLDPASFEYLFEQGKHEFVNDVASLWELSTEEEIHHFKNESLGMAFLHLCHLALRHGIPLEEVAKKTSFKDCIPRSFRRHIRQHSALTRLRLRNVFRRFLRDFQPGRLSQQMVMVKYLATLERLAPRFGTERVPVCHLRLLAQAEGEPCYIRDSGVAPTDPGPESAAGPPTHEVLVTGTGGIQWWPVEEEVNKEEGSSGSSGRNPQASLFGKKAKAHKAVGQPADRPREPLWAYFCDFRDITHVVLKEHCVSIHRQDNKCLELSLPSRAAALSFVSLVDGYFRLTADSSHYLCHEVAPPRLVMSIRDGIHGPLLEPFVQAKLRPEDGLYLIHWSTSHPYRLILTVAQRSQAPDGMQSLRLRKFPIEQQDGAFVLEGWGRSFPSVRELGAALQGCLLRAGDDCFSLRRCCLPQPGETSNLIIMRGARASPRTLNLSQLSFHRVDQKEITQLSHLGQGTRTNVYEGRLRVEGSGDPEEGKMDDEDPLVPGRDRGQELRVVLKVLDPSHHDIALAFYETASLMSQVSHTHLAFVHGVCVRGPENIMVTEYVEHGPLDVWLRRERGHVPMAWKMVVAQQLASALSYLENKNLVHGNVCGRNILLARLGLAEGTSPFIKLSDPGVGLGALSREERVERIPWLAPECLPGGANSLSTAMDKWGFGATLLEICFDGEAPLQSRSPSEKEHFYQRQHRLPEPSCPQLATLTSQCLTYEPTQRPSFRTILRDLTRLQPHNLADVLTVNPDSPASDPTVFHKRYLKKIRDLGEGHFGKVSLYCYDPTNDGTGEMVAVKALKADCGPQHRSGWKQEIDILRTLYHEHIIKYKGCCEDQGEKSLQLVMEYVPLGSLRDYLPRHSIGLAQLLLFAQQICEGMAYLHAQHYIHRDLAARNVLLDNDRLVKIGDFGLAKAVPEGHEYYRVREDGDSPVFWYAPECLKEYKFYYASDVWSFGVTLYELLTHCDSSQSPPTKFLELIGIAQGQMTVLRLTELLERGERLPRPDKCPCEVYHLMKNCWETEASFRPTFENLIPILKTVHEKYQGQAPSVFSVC

[3] = IL-4 induced STAT6 phosphorylation, THP-1 cells
[4] = THP-1 cells, IL-4 induced STAT6 phosphorylation

Chain of JAK1 (P23458 whole entry): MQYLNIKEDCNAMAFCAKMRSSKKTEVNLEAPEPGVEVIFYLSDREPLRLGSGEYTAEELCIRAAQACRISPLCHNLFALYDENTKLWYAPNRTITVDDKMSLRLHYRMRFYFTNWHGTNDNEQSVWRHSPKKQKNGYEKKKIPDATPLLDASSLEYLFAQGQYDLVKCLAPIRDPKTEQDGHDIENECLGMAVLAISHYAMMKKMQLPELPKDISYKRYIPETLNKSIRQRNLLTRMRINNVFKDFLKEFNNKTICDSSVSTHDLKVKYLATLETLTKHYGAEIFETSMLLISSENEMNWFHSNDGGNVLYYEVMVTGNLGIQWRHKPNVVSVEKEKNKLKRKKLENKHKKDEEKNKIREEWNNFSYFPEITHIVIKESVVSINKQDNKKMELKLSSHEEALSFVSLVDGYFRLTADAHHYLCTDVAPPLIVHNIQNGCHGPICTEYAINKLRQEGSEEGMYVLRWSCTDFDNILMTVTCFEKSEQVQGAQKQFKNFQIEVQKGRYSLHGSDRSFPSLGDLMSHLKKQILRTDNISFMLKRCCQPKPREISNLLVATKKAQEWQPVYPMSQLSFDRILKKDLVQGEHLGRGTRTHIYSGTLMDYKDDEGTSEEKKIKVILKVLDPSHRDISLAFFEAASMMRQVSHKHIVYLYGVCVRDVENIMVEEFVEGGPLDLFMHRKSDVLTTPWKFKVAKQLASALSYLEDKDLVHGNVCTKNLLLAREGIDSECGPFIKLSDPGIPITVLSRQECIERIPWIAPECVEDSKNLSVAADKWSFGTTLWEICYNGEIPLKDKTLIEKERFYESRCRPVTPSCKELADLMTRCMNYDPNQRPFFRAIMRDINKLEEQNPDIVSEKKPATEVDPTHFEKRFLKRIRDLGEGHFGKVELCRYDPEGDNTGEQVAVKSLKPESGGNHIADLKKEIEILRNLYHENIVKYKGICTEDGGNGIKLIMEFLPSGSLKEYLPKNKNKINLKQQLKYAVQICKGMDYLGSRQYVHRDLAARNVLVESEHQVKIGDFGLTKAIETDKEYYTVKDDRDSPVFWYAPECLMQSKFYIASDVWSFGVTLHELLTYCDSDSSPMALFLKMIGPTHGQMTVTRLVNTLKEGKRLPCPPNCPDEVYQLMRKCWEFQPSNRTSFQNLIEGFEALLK
Chain of JAK2 (O60674 whole entry): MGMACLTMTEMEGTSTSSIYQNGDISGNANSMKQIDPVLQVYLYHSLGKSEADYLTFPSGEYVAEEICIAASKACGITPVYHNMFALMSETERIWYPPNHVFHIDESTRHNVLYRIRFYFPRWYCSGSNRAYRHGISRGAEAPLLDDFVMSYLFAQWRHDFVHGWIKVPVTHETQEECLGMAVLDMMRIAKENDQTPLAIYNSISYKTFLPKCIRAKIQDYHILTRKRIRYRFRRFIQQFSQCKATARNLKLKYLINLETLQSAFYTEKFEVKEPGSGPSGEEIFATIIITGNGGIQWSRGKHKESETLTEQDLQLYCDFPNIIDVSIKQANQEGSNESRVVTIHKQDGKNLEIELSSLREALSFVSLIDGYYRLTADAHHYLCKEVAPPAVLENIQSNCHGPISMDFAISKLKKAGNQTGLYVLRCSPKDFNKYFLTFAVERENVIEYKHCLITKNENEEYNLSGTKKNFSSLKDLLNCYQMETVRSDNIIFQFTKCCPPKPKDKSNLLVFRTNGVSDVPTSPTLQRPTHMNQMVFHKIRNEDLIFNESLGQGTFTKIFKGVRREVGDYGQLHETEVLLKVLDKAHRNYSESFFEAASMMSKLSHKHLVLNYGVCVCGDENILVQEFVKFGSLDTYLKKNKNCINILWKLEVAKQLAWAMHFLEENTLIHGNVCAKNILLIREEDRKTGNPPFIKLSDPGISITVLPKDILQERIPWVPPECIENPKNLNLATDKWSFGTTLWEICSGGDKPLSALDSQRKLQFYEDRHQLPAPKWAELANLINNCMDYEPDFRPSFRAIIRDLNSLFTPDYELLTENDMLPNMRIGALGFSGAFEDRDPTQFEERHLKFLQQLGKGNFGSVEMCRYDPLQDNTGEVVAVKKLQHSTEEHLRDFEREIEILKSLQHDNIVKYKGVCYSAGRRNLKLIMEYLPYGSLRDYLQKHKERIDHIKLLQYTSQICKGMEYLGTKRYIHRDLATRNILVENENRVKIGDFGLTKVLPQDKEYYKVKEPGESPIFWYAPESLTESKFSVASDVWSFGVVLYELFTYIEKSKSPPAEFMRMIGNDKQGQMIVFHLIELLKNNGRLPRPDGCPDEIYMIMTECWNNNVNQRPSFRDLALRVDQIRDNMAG

Structure (SMILES)	JAK 1 (pKi) (JAK1)	JAK 2 (pKi) (JAK2)	JAK 3 (pKi) (JAK3)	THP-1 IL4 pIC50 [1, 3]	THP-1 IL4 pIC50 [1, 4]	BEAS2B pIC50 [2]	Tyk 2 (pKi) (Tyk2)
Cc1cc(Nc2cc3ncccc3c(N[C@@H]3C[C@H]4CC[C@@H](C3)N4CC(N)=O)n2)n[nH]1 [Example 1-6]	B (B represents a pKi value between 9 and 10 (Ki between 1 nM and 0.1 nM))	B (B represents a pKi value between 9 and 10 (Ki between 1 nM and 0.1 nM))	C (C represents a pKi value between 7 and 9 (Ki between 100 nM and 1 nM))	C (C represents a pEC50 value<6.7 (EC50>200 nM))			
Cc1cc(Nc2cc3ncccc3c(N[C@@H]3C[C@H]4CC[C@@H](C3)N4CC(=O)N(C)C)n2)n[nH]1 [Example 1-8]	B (B represents a pKi value between 9 and 10 (Ki between 1 nM and 0.1 nM))		C (C represents a pKi value between 7 and 9 (Ki between 100 nM and 1 nM))	C (C represents a pEC50 value<6.7 (EC50>200 nM))			
COC(=O)CCN1[C@@H]2CCC[C@H]1C[C@H](Nc1nc(Nc3cc(C)[nH]n3)cc3ncccc13)C2 [Example 1-33]	B (B represents a pKi value between 9 and 10 (Ki between 1 nM and 0.1 nM))	B (B represents a pKi value between 9 and 10 (Ki between 1 nM and 0.1 nM))	C (C represents a pKi value between 7 and 9 (Ki between 100 nM and 1 nM))	C (C represents a pEC50 value<6.7 (EC50>200 nM))			
Cc1cc(Nc2cc3ncccc3c(N[C@@H]3C[C@H]4CCC[C@@H](C3)N4CC(=O)N[C@@H]3CCOC3=O)n2)n[nH]1 [Example 1-41]		A (A represents a pKi value≥10 (Ki≤0.1 nM))	B (B represents a pKi value between 9 and 10 (Ki between 1 nM and 0.1 nM))	C (C represents a pEC50 value<6.7 (EC50>200 nM))			
Cc1cc(Nc2cc3ncccc3c(N[C@@H]3C[C@H]4CCC[C@@H](C3)N4CC(=O)N[C@H]3CCOC3=O)n2)n[nH]1 [Example 1-42]		A (A represents a pKi value≥10 (Ki≤0.1 nM))	B (B represents a pKi value between 9 and 10 (Ki between 1 nM and 0.1 nM))	C (C represents a pEC50 value<6.7 (EC50>200 nM))			
Cc1cc(Nc2cc3ncccc3c(N[C@@H]3C[C@H]4CCC[C@@H](C3)N4Cc3ccc(O)cc3)n2)n[nH]1 [Example 1-50]	A (A represents a pKi value≥10 (Ki≤0.1 nM))	A (A represents a pKi value≥10 (Ki≤0.1 nM))	C (C represents a pKi value between 7 and 9 (Ki between 100 nM and 1 nM))	B (B represents a pEC50 value between 6.7 and 7.5 (EC50 between 200 nM and 32 nM))			
Cc1cc(Nc2cc3ncccc3c(N[C@@H]3C[C@H]4CC[C@@H](C3)N4C(=O)CN(C)C)n2)n[nH]1 [Example 2-5]	B (B represents a pKi value between 9 and 10 (Ki between 1 nM and 0.1 nM))		C (C represents a pKi value between 7 and 9 (Ki between 100 nM and 1 nM))	C (C represents a pEC50 value<6.7 (EC50>200 nM))			
Cc1cc(Nc2cc3ncccc3c(N[C@@H]3C[C@H]4CCC[C@@H](C3)N4S(=O)(=O)C3CNC3)n2)n[nH]1 [Example 4-21]		B (B represents a pKi value between 9 and 10 (Ki between 1 nM and 0.1 nM))	C (C represents a pKi value between 7 and 9 (Ki between 100 nM and 1 nM))	C (C represents a pEC50 value<6.7 (EC50>200 nM))			
COc1ccc2c(N[C@@H]3C[C@H]4CC[C@@H](C3)N4CCF)nc(Nc3cc(C)[nH]n3)cc2n1 [Example 5-3]	B (B represents a pKi value between 9 and 10 (Ki between 1 nM and 0.1 nM))		C (C represents a pKi value between 7 and 9 (Ki between 100 nM and 1 nM))	B (B represents a pEC50 value between 6.7 and 7.5 (EC50 between 200 nM and 32 nM))			
CCS(=O)(=O)N1[C@@H]2CCC[C@H]1C[C@H](Nc1nc(Nc3cc(C)[nH]n3)cc3nc(CN4CCOCC4)ccc13)C2 [Example 5-23]	A (A represents a pKi value≥10 (Ki≤0.1 nM))	A (A represents a pKi value≥10 (Ki≤0.1 nM))	B (B represents a pKi value between 9 and 10 (Ki between 1 nM and 0.1 nM))	A (A represents a pEC50 value≥7.5 (EC50≤32 nM))			
Cc1cc(Nc2cc3nc(CN4CCN(C)CC4)ccc3c(N[C@@H]3C[C@H]4CC[C@@H](C3)N4CCC#N)n2)n[nH]1 [Example 5-37]			B (B represents a pKi value between 9 and 10 (Ki between 1 nM and 0.1 nM))	B (B represents a pEC50 value between 6.7 and 7.5 (EC50 between 200 nM and 32 nM))			
Cc1cc(Nc2cc3nc(CN4CCN(C)CC4)ccc3c(N[C@@H]3C[C@H]4CC[C@@H](C3)N4CC(C)C)n2)n[nH]1 [Example 5-38]			C (C represents a pKi value between 7 and 9 (Ki between 100 nM and 1 nM))				
COc1cnc2cc(Nc3cc(C)[nH]n3)nc(N[C@@H]3C[C@H]4CC[C@@H](C3)N4CCF)c2c1 [Example 6-13]	B (B represents a pKi value between 9 and 10 (Ki between 1 nM and 0.1 nM))		C (C represents a pKi value between 7 and 9 (Ki between 100 nM and 1 nM))		B (B represents a pEC50 value between 6.7 and 7.5 (EC50 between 200 nM and 32 nM))		
C=CCOC(=O)N1[C@@H]2CC[C@H]1C[C@H](Nc1nc(Nc3cc(C)[nH]n3)cc3ncc(OC)cc13)C2 [Example 6-19]	B (B represents a pKi value between 9 and 10 (Ki between 1 nM and 0.1 nM))		C (C represents a pKi value between 7 and 9 (Ki between 100 nM and 1 nM))		B (B represents a pEC50 value between 6.7 and 7.5 (EC50 between 200 nM and 32 nM))		
COc1cnc2cc(Nc3cc(C)[nH]n3)nc(N[C@@H]3C[C@H]4CC[C@@H](C3)N4C(=O)OCC(C)C)c2c1 [Example 6-25]			C (C represents a pKi value between 7 and 9 (Ki between 100 nM and 1 nM))		B (B represents a pEC50 value between 6.7 and 7.5 (EC50 between 200 nM and 32 nM))	A (A represents a pEC50 value≥7.5 (EC50≤32 nM))	
CNC(=O)CN1[C@@H]2CC[C@H]1C[C@H](Nc1nc(Nc3cc(C)[nH]n3)cc3ncc(C(=O)OC)cc13)C2 [Example 6-42]	B (B represents a pKi value between 9 and 10 (Ki between 1 nM and 0.1 nM))	B (B represents a pKi value between 9 and 10 (Ki between 1 nM and 0.1 nM))	C (C represents a pKi value between 7 and 9 (Ki between 100 nM and 1 nM))		C (C represents a pEC50 value<6.7 (EC50>200 nM))		
Cc1cc(Nc2cc3ncc(S(C)(=O)=O)cc3c(N[C@@H]3C[C@H]4CC[C@@H](C3)N4C(=O)CC#N)n2)n[nH]1 [Example 6-51]	B (B represents a pKi value between 9 and 10 (Ki between 1 nM and 0.1 nM))	B (B represents a pKi value between 9 and 10 (Ki between 1 nM and 0.1 nM))	C (C represents a pKi value between 7 and 9 (Ki between 100 nM and 1 nM))		C (C represents a pEC50 value<6.7 (EC50>200 nM))		
Cc1cc(Nc2nc(N[C@@H]3C[C@H]4CC[C@@H](C3)N4CCC#N)c3cccnc3c2F)n[nH]1 [Example 8-1]	B (B represents a pKi value between 9 and 10 (Ki between 1 nM and 0.1 nM))	B (B represents a pKi value between 9 and 10 (Ki between 1 nM and 0.1 nM))	C (C represents a pKi value between 7 and 9 (Ki between 100 nM and 1 nM))		B (B represents a pEC50 value between 6.7 and 7.5 (EC50 between 200 nM and 32 nM))		
Cc1cc(Nc2nc(N[C@@H]3C[C@H]4CC[C@@H](C3)N4C(=O)CN(C)C)c3cccnc3c2F)n[nH]1 [Example 8-7]			C (C represents a pKi value between 7 and 9 (Ki between 100 nM and 1 nM))		C (C represents a pEC50 value<6.7 (EC50>200 nM))		
Cc1cc(Nc2nc(N[C@@H]3C[C@H]4CCC[C@@H](C3)N4CCC#N)c3cccnc3c2F)n[nH]1 [Example 8-9]	B (B represents a pKi value between 9 and 10 (Ki between 1 nM and 0.1 nM))	B (B represents a pKi value between 9 and 10 (Ki between 1 nM and 0.1 nM))	C (C represents a pKi value between 7 and 9 (Ki between 100 nM and 1 nM))		B (B represents a pEC50 value between 6.7 and 7.5 (EC50 between 200 nM and 32 nM))		
Cc1cnc2c(F)c(Nc3cc(C)[nH]n3)nc(N[C@@H]3C[C@H]4CCC[C@@H](C3)N4S(=O)(=O)N3CC(C#N)C3)c2c1 [Example 8-23]	B (B represents a pKi value between 9 and 10 (Ki between 1 nM and 0.1 nM))	A (A represents a pKi value≥10 (Ki≤0.1 nM))			B (B represents a pEC50 value between 6.7 and 7.5 (EC50 between 200 nM and 32 nM))	B (B represents a pEC50 value between 6.7 and 7.5 (EC50 between 200 nM and 32 nM))	B (B represents a pKi value between 9 and 10 (Ki between 1 nM and 0.1 nM))

Source: US10072026B2, “Crystalline form of 3-((1R,3s,5S)-3-((7-((5-methyl-1H-pyrazol-3-yl)amino)-1,6-naphthyridin-5-yl)amino)-8-azabicyclo[3.2.1]octan-8-yl)propanenitrile” (priority 2015, dated 2018)
